# Measured values taken from patent US9850245B2 (Merck Sharp & Dohme Corp., priority 2014, dated 2017).
# What was measured:
# ROMK = ROMK (Homo sapiens (Human), UniProt P48048); experiment: Thallium Flux Assay; format: cell-based
# Protocol: A Thallium Flux Assay was performed on the compounds of the Examples. This assay has been described previously; see, e.g., PCT Published Application WO 2013/062900.
# Kir1.1 (ROMK1) = Kir1.1 (ROMK1) (Homo sapiens (Human), UniProt P48048); experiment: Electrophysiology Assay (whole cell voltage clamp, IonWorks Quattro); format: cell-based; conditions: Chinese hamster ovary cells stably expressing Kir1.1; fractional block at voltage step to 0 mV; 6 min compound incubation
# Kir1.1 (ROMK1), sequence (P48048 whole entry): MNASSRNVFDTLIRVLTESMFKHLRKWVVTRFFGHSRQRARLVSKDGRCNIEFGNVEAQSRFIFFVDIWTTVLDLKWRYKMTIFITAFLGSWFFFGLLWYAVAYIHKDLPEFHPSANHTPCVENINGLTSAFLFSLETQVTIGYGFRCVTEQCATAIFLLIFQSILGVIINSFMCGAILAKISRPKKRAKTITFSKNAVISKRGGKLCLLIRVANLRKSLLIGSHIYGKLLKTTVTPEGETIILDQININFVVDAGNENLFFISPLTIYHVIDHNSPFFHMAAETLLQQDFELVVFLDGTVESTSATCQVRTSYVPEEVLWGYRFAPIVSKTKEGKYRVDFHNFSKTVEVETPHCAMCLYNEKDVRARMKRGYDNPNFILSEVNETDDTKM
# Protocol: Blocking of Kir1.1 (ROMK1) currents was examined by whole cell voltage clamp (Hamill et. al. Pfluegers Archives 391:85-100 (1981)) using the IonWorks Quattro automated electrophysiology platform (Molecular Devices, Sunnyvale, Calif.). Chinese hamster ovary cells stably expressing Kir1.1 channels were maintained in T-75 flasks in cell culture media in a humidified 10% CO2 incubator at 37° C. Prior to an experiment, Kir1.1 expression was induced by overnight incubation with 1 mM sodium butyrate. On the day of the experiment, cells were dissociated with 2.5 mL of Versene (Invitrogen 15040-066), a non-enzymatic cell dissociation reagent, for approximately 6 min at 37° C. and suspended in 10 mL of bath solution containing (in mM): 150 NaCl, 10 KCl, 2.7 CaCl2, 0.5 MgCl2, and 5 HEPES, at pH 7.4. After centrifugation, the cell pellet was resuspended in approximately 4.0 mL of bath solution and placed in the IonWorks instrument. The intracellular solution consisted of (in mM): 80 K gluconate, 40 KCl, 20 KF, 3.2 MgCl2, 3 EGTA, and 5 Hepes, at pH 7.4. Electrical access to the cytoplasm was achieved by perforation in 0.13 mg/mL amphotericin B for 4 min. Amphotericin B (Sigma A-4888) was prepared as a 40 mg/mL solution in DMSO.
# Voltage protocols and current recordings were performed using the IonWorks HT software/hardware system. Currents were sampled at 1 kHz. There was no correction for liquid junction potentials. The test pulse, consisting of a 100 ms (millisecond) step to 0 mV (millivolts) from a holding potential of −70 mV, followed by a 100 ms voltage ramp from −70 mV to +70 mV, was applied before and after a 6 min compound incubation period. Test compounds were prepared by diluting DMSO stock solutions into the bath solution at 3× the final concentration and placed in the instrument in 96-well polypropylene plates. Current amplitudes were measured using the IonWorks software. To assess compound potency, the fractional block during the voltage step to 0 mV was calculated in Microsoft Excel (Microsoft, Redmond, Calif.), and dose-response curves were fitted with Igor Pro 4.0 (WaveMetrics, Lake Oswego, Oreg.).
# ROMK, sequence (P48048 whole entry): as above
Compound,IC50 (ROMK) [nM],IC50 (Kir1.1 (ROMK1)) [nM]
CC1=C(N2CCOC3(CCN(CCc4ccc(-n5cnnn5)cn4)CC3)C2)COC1=O [Example 50],57.6,16
"CC1=C(N2CCOC3(CCN(CC(O)c4cnc(-n5cnnn5)cn4)CC3)C2=O)COC1=O (single isomer, unassigned) [Example 18A, 9-(2-(5-(1H-tetrazol-1-yl)pyrazin-2-yl)-2-hydroxyethyl)-4-(4-methyl-5-oxo-2,5-dihydrofuran-3-yl)-1-oxa-4,9-diazaspiro[5.5]undecan-5-one]",69.6,12
"O=C1C=C(N2CCOC3(CCN(C[C@H](O)c4ccc(-n5cnnn5)nc4)CC3)C2)CO1 [Example 19A, (R)-4-(9-(2-(6-(1H-tetrazol-1-yl)pyridin-3-yl)-2-hydroxyethyl)-1-oxa-4,9-diazaspiro[5.5]undecan-4-yl)furan-2(5H)-one]",80.6,56
"CC1=C(N2CCOC3(CCN(C[C@H](O)c4ccc5c(c4C)COC5=O)CC3)C2)COC1=O [Example 21, (R)-5-(1-hydroxy-2-(4-(4-methyl-5-oxo-2,5-dihydrofuran-3-yl)-1-oxa-4,9-diazaspiro[5.5]undecan-9-yl)ethyl)-4-methylisobenzofuran-1(3H)-one]",171,77
"O=C1C=C(N2CCOC3(CCN(C[C@@H](O)c4ccc(-n5cnnn5)nc4)CC3)C2)CO1 [Example 19B, (S)-4-(9-(2-(6-(1H-tetrazol-1-yl)pyridin-3-yl)-2-hydroxyethyl)-1-oxa-4,9-diazaspiro[5.5]undecan-4-yl)furan-2(5H)-one]",263,100
"CC1=C(N2CCOC3(CCN(CC(O)c4ccc(-n5cnnn5)nc4C)CC3)C2)COC1=O (single isomer, unassigned) [Example 22A, 4-(9-(2-hydroxy-2-(2-methyl-6-(1H-tetrazol-1-yl)pyridin-3-yl)ethyl)-1-oxa-4,9-diazaspiro[5.5]undecan-4-yl)-3-methylfuran-2(5H)-one]",34,11
"CC1=C(N2CCOC3(CCN(CC(O)c4ccc(-n5cnnn5)nc4C)CC3)C2)COC1=O (single isomer, unassigned) [Example 22B, 4-(9-(2-hydroxy-2-(2-methyl-6-(1H-tetrazol-1-yl)pyridin-3-yl)ethyl)-1-oxa-4,9-diazaspiro[5.5]undecan-4-yl)-3-methylfuran-2(5H)-one]",117,29
"CC1=C(N2CCNC3(CCN(CC(O)c4ccc(-n5cnnn5)nc4C)CC3)C2=O)COC1=O (single isomer, unassigned) [Example 2A, 9-(2-hydroxy-2-(2-methyl-6-(1H-tetrazol-1-yl)pyridin-3-yl)ethyl)-4-(4-methyl-5-oxo-2,5-dihydrofuran-3-yl)-1,4,9-triazaspiro[5.5]undecan-5-one]",36.5,26
"CC1=C(N2CCN(C)C3(CCN(C[C@H](O)c4ccc5c(c4C)COC5=O)CC3)C2=O)COC1=O [Example 34, (R)-9-(2-hydroxy-2-(4-methyl-1-oxo-1,3-dihydroisobenzofuran-5-yl)ethyl)-1-methyl-4-(4-methyl-5-oxo-2,5-dihydrofuran-3-yl)-1,4,9-triazaspiro[5.5]undecan-5-one]",42.3,27
"Cc1nc(-n2cnnn2)ccc1C(O)CN1CCC2(CC1)CN(C1=CC(=O)OC1)CCO2 (single isomer, unassigned) [Example 20B, 4-(9-(2-hydroxy-2-(2-methyl-6-(1H-tetrazol-1-yl)pyridin-3-yl)ethyl)-1-oxa-4,9-diazaspiro[5.5]undecan-4-yl)furan-2(5H)-one]",225,71
"Cc1c([C@@H](O)CN2C3CCC2CC2(C3)OCCN(C3=CC(=O)OC3)C2=O)ccc2c1COC2=O (stereo partly drawn) [Example 36, (1R,2′R,5S)-8-((R)-2-hydroxy-2-(4-methyl-1-oxo-1,3-dihydroisobenzofuran-5-yl)ethyl)-4′-(5-oxo-2,5-dihydrofuran-3-yl)-8-azaspiro[bicyclo[3.2.1]octane-3,2′-morpholin]-3′-one]",29.3,13.4
"CC1=C(N2CCOC3(CCN(C[C@@H](O)c4ccc(-n5cnnn5)nc4)CC3)C2=O)COC1=O [Example 6B, (S)-9-(2-(6-(1H-tetrazol-1-yl)pyridin-3-yl)-2-hydroxyethyl)-4-(4-methyl-5-oxo-2,5-dihydrofuran-3-yl)-1-oxa-4,9-diazaspiro[5.5]undecan-5-one]",12.1,3.8
"CC1=C(N2CCOC3(CCN(C[C@H](O)c4ccc(-n5cnnn5)nc4)CC3)C2=O)COC1=O [Example 6A, (R)-9-(2-(6-(1H-tetrazol-1-yl)pyridin-3-yl)-2-hydroxyethyl)-4-(4-methyl-5-oxo-2,5-dihydrofuran-3-yl)-1-oxa-4,9-diazaspiro[5.5]undecan-5-one]",14.6,6.6
"CC1=C(N2CCOC3(CCN(CC(O)c4cnc(-n5cnnn5)nc4)CC3)C2=O)COC1=O (single isomer, unassigned) [Example 46A, 9-(2-(2-(1H-tetrazol-1-yl)pyrimidin-5-yl)-2-hydroxyethyl)-4-(4-methyl-5-oxo-2,5-dihydrofuran-3-yl)-1-oxa-4,9-diazaspiro[5.5]undecan-5-one]",56,51
"CC1=C(N2CCOC3(CCN(CCc4ccc(-n5cnnn5)nn4)CC3)C2=O)COC1=O [Example 51, 9-(2-(6-(1H-tetrazol-1-yl)pyridazin-3-yl)ethyl)-4-(4-methyl-5-oxo-2,5-dihydrofuran-3-yl)-1-oxa-4,9-diazaspiro[5.5]undecan-5-one]",26.8,7.3
"Cc1nc(-n2cnnn2)ccc1C(O)CN1CCC2(CC1)CN(C1=CC(=O)OC1)CCO2 (single isomer, unassigned) [Example 20A, 4-(9-(2-hydroxy-2-(2-methyl-6-(1H-tetrazol-1-yl)pyridin-3-yl)ethyl)-1-oxa-4,9-diazaspiro[5.5]undecan-4-yl)furan-2(5H)-one]",61.5,37
"CC1=C(N2CCNC3(CCN(C[C@H](O)c4ccc(-n5cnnn5)nc4)CC3)C2=O)COC1=O [Example 4A, (R)-9-(2-(6-(1H-tetrazol-1-yl)pyridin-3-yl)-2-hydroxyethyl)-4-(4-methyl-5-oxo-2,5-dihydrofuran-3-yl)-1,4,9-triazaspiro[5.5]undecan-5-one]",38.2,46
"Cc1c([C@@H](O)CN2CCC3(CC2)CN(C2=CC(=O)OC2)C(=O)O3)ccc2c1COC2=O [Example 16, (R)-8-(2-hydroxy-2-(4-methyl-1-oxo-1,3-dihydroisobenzofuran-5-yl)ethyl)-3-(5-oxo-2,5-dihydrofuran-3-yl)-1-oxa-3,8-diazaspiro[4.5]decan-2-one]",315,320
"CC1=C(N2CCOC3(CCN(C[C@H](O)c4ccc5c(c4C)COC5=O)CC3)C2=O)COC1=O [Example 8A, (R)-9-(2-hydroxy-2-(4-methyl-1-oxo-1,3-dihydroisobenzofuran-5-yl)ethyl)-4-(4-methyl-5-oxo-2,5-dihydrofuran-3-yl)-1-oxa-4,9-diazaspiro[5.5]undecan-5-one]",13.3,6.4
"CC1=C(N2CCOC3(CCN(CC(O)c4ccc(-n5cnnn5)nc4C)CC3)C2=O)COC1=O (stereo not shown) [Example 39, 9-(2-hydroxy-2-(2-methyl-6-(1H-tetrazol-1-yl)pyridin-3-yl)ethyl)-4-(4-methyl-5-oxo-2,5-dihydrofuran-3-yl)-1-oxa-4,9-diazaspiro[5.5]undecan-5-one]",11.2,13
